Earlier results as cited in US11389512B2, “Use of low molecular weight fractions of human serum albumin in treating diseases” (Ampio Pharmaceuticals, Inc., priority 2015, dated 2022).

Legend:
[1] = in vivo
[2] = tested on: platelet activating factor

| Compound | time to be cleared from the body [1] | inhibition of platelet activating factor [2] |
| --- | --- | --- |
| CC(=O)Oc1ccccc1C(=O)O [aspirin, acetylsalicylic acid] | 5 days |  |
| CC1NC(=O)C(CC(=O)O)NC1=O (centres unmarked) [DA-DKP, 3-methyl-2,5-diketopiperazine-6-acetic acid] |  | inhibit |
